In data set [1] the target is T1, CtNDT (2′-deoxyribonucleoside/ribonucleoside transferase, dNDT) (Chroococcidiopsis thermalis, UniProt K9TVX3, E88A).
T1 construct: gene Chro_1188
Put plainly: stopped-flow tryptophan fluorescence; kon […] ^–[…] s^–[…], koff […] s^–[…]. Type of data set: binding. The following applies: read-out: stopped-flow tryptophan fluorescence; kon 0.76 μM^-1 s^-1, koff 39.3 s^-1.

Data set [2] addresses T2, CtNDT (2′-deoxyribonucleoside/ribonucleoside transferase, dNDT) (Chroococcidiopsis thermalis, UniProt K9TVX3).
T2 construct: gene Chro_1188
T2 sequence (K9TVX3 1-155): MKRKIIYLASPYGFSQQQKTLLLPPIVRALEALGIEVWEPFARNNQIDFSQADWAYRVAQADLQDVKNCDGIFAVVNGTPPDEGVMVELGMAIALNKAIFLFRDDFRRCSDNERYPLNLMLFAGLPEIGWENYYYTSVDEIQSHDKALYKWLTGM
Put plainly: stopped-flow fluorescence ([…]′-deoxyribosylation […] s^–[…]); HPLC steady-state kinetics (kcat/KM). Type of data set: binding.

The target in data set [3] is T2, CtNDT (2′-deoxyribonucleoside/ribonucleoside transferase, dNDT). In words: HPLC steady-state transglycosylation kinetics (kcat). It counts as biochemical.
For data set [4] the target is unchanged. Put plainly: ITC; co-crystal structure. Type of data set: binding.
Data set [5] shares this target. Put plainly: crystal structure of the covalent 2-difluoro-2-deoxyribosyl enzyme after cocrystallization. Type of data set: binding.
For data set [6] the target is unchanged. In words: ITC; stopped-flow fluorescence. It counts as binding. Background: ITC needs no label: the signal is the heat of the interaction.
Data set [7] deals with T3, CtNDT (2′-deoxyribonucleoside/ribonucleoside transferase, dNDT) (Chroococcidiopsis thermalis, UniProt K9TVX3, D62N).
T3 construct: gene Chro_1188
Put plainly: co-crystal structure. It counts as binding.

The target in data set [8] is Chroococcidiopsis thermalis nucleoside 2'-deoxyribosyltransferase (CtNDT), wild type (Chroococcidiopsis thermalis PCC 7203) (UniProt K9TVX3). Put plainly: SEC; size exclusion of purified CtNDT in solution (Figure S1); conditions not shown.
Substrate in data set [9]: Nc1ncnc2c1ncn2[C@@H]1O[C@H](CO)[C@@H](O)[C@H]1O
Put plainly: crystal structure of ribosylated enzyme after cocrystallization; HPLC steady-state kinetics (KM). To be noted: ribosyl covalent on catalytic glutamate E88; D62 near […]′-OH and […]′-OH. Type of data set: biochemical, Chroococcidiopsis thermalis. The text has this: crystal structure of ribosylated enzyme after cocrystallization; HPLC steady-state kinetics (KM) on CtNDT (2′-deoxyribonucleoside/ribonucleoside transferase, dNDT) | determined the structure of a ribosylated enzyme intermediate by cocrystallization of wild-type CtNDT in the presence of Ado

Regarding `Nc1ncnc2c1ncn2[C@H]1C[C@H](O)[C@@H](CO)O1` [2′-deoxyadenosine], the koff in data set [1] worked out at 39.3 ± 0.7 s⁻¹. The “stopped-flow fluorescence (2′-deoxyribosylation 532 s^-1); HPLC steady-state kin” value in data set [2] is recorded as 50.5 ± 12.2 mM^–1 s^–1.

For `Nc1nc2c(ncn2[C@H]2C[C@H](O)[C@@H](CO)O2)c(=O)[nH]1` [2′-deoxyguanosine], in [3], the “HPLC steady-state transglycosylation kinetics (kcat)” value is 6.9 ± 0.7 s^–1.

A word on the Kd: it is the free concentration of one partner at which half of the binding sites on the other are occupied at equilibrium, for simple one-to-one binding. Molecule `O=c1[nH]cnc2c(CN3C[C@H](CO)[C@@H](O)C3)c[nH]c12` [DADme–immucillin-H] returned a Kd in [4] of 0.009 ± 0.005 µM.

Regarding `Nc1ccn([C@@H]2O[C@H](CO)[C@@H](O)C2(F)F)c(=O)n1` [Gemcitabine], the “crystal structure of the covalent 2-difluoro-2-deoxyribosyl enzyme after cocryst” value in data set [5] is “structure of a 2-difluoro-2-deoxy-ribosylated CtNDT after cocrystallization with Gemcitabine”.

Turning to `O=c1[nH]cnc2c([C@@H]3N[C@H](CO)[C@@H](O)[C@H]3O)c[nH]c12` [immucillin-H], the dissociation constant Kd in data set [6] worked out at 78.2 ± 6.6 µM. Further, the co-crystal structure result in [7] is given as “(b) CtNDTD62N bound to immucillin-H”.

The stoichiometry N is the number of molecules, sites or subunits per partner or assembly. “Chroococcidiopsis thermalis nucleoside 2'-deoxyribosyltransferase (CtNDT), wild type (from UniProt K9TVX3 1-155) (enzyme)”: the stoichiometry N in [8] was determined as 4.

B1: CtNDT (2′-deoxyribonucleoside/ribonucleoside transferase, dNDT) (Chroococcidiopsis thermalis PCC 7203) (protein)
chain: T2 sequence (K9TVX3 1-155)
For orientation: Km means the concentration of substrate that gives half-maximal velocity. Turning to B1, the Km in data set [9] came to 250 ± 50 µM.
